# Measured values: a melting point compilation (Tetko et al.; mined from patent text by program, amines drawn as free bases though some values may be those of a salt)
row,melting point [°C],Compound
1,82 to 86,CC(C)(C)NC(=O)[C@H](Cc1ccc(OCc2c(Cl)cccc2Cl)cc1)NC(=O)OC(C)(C)C
2,93.7,Cc1ccc(C(=O)c2ccc(C(C)C(=O)O)cc2)s1 (configuration not stated)
3,122 to 124,O=C(O)C1(COc2ccc(Br)cc2)COC1
4,155 to 158,NC(=O)N(c1ccc(-c2c(CCO)sc3ncnc(N)c23)cc1)c1cccc(C(F)(F)F)c1
5,160,CC(C)C[C@H](NC(=O)NCc1ccccc1)C(=O)N[C@@H](C(C)C)[C@@H](O)c1c(-c2ccccc2)c1=O
6,63 to 64,COC(=O)COc1cccnc1Br
7,226 to 230,CCCn1c(=O)c2[nH]c(C3CC4COCC4C3)nc2n(CCC)c1=O (configuration not stated)
8,161 to 162,Cc1oc(-c2ccccc2)nc1COc1ccc(COc2ccc3ccccc3c2CCC(=O)O)cc1
9,88 to 90,CC(Nc1nc(-c2ccccc2)cs1)c1ccc(CO)cc1 (configuration not stated)
10,127 to 137,COc1c(Cl)cc(C(=O)O)c2cccc(S(=O)(=O)N(C)C)c12
11,132 to 134,O=C(CCCCC1(C(=O)O)CC1)CCCCC1(C(=O)O)CC1
12,92 to 93,CN1CCc2ccccc2C(c2ccccc2)C1(C)C (configuration not stated)
13,225 to 227,CCCCc1oc2ccccc2c1C(=O)Nc1ccc(-c2ccc(OCC(=O)O)cc2)cc1
14,228 to 229,CC(C)(C)NC(=NC#N)Nc1cnc2ccccc2c1
15,97 to 98,CON=C(C(=O)OC)C1=C(C(=O)c2ccc(F)cc2)CC(C)=C(C)C1
16,136 to 137,Brc1ccc2cc(N(c3ccccc3)c3ccccc3)ccc2c1
17,137 to 139,CC(C)C[C@H](N)C(=O)NCCCCNC(=O)OCc1ccccc1
18,71 to 72,CC12CCC3C(CCC4CC=CCC43C)C1CC=C2I (configuration not stated)
19,296 to 297,COc1cc2nc(N3CCN(c4ccc(O)nn4)CC3)nc(N)c2cc1OC
20,54,O=C1OC(=O)c2cc(C(F)(F)F)ccc21
21,228 to 230,COC(=O)c1ccc(C(=O)NS(=O)(=O)c2ccc(C(=O)NCCc3ccccc3)cc2)cn1
22,206 to 208,CN(C)c1ccc2c(c1)CN(c1cccc(-c3cc(Nc4ccncn4)c(=O)n(C)c3)c1CO)C2=O
23,68 to 69,Cc1ccc(Oc2ccc(C(=O)c3ccc(Oc4ccc(C)c(C)c4)cc3)cc2)cc1C
24,55,OCc1cc(Cl)c(F)c(Cl)c1F

row,melting point [°C],Compound
1,118,Cn1ncc(=O)[nH]c1=O
2,244 to 248,COC(=O)c1ccc(O)cc1NC(=O)NS(=O)(=O)c1ccc(Cl)cc1
3,99 to 101,CN1CCC(C(=O)CCc2ccccc2O)CC1
4,128 to 131,CCc1cc2c(NCc3ccccc3)ncnc2s1
5,101,O=C1c2ccccc2C(=O)N1CCCSc1ncco1
6,184,Cc1csc(NCCN2CCC(Nc3nc4ccccc4n3Cc3ccc(F)cc3)CC2)n1
7,156 to 159,COCc1cnc2c(NC(=O)c3ccccc3[N+](=O)[O-])cccc2c1N1CCN(C)C1=O
8,127,COC(=O)c1ccc(Cc2cc3cc(Cl)ccc3n2S(=O)(=O)c2ccc(C(C)C)cc2)cc1F
9,92.9,CCOCc1nnc2c(C)c(Cl)ccn12
10,181 to 182,COC(=O)c1ccccc1S(=O)(=O)NC(=O)Nc1cc(C)cc(C)n1
11,48 to 50,C#CCN(CC#C)c1ccc(Cl)c(Cl)c1
12,273 to 275,NC(=O)c1ccc(-c2cnc3[nH]c(=O)n(CC4CCOCC4)c3n2)cc1
13,158 to 160,O=C(OCN1C(=O)CN(CCN2CC(=O)N(COC(=O)c3cccs3)C(=O)C2)CC1=O)c1cccs1
14,87 to 88,COc1cc(OC)c(C(=O)CCCCCl)cc1N
15,120 to 124,N#Cc1ccc(NC(=O)CN2CCC(Cc3ccccc3)CC2)cc1
16,190 to 194,CCc1cnc(N2CCC(c3ccc4oc(-c5ccc(S(C)(=O)=O)cc5F)nc4c3)CC2)nc1
17,228 to 229,CCCCc1ncc(/C=C(\C)C(=O)O)n1Cc1ccccc1Cl
18,169 to 172,O=C(NCC12CC3CC(CC(C3)C1)C2)c1cc(-c2ncccc2C(=O)O)ccc1Cl
19,120 to 122,CCOC(=O)c1c[nH]cc1-c1cccc(F)c1
20,153 to 157,O=C(O)Cc1ccc(S(=O)(=O)c2ccc(Cl)cc2)cc1
21,50 to 53,O=[N+]([O-])c1ccc(F)c(CO)c1
22,130 to 132,CN(C)C(=O)Nc1ccc(OS(C)(=O)=O)c(Cl)c1
23,180,NC(CCNCCC(N)=NO)=NO
24,115 to 118,CCCCCCCCCCCCCC(=O)Nc1ccc(Cl)c(NC(=CC(=O)OCC)OCC)c1

row,melting point [°C],Compound
1,160,O=C(NCC(=O)N1[C@@H](c2ccccc2O)CC[C@H]1c1ccccc1)Nc1cccc(C(=O)O)c1 (racemic)
2,202 to 204,O=c1oc2c(Cl)cccc2cc1S(=O)(=O)Nc1ccc(Br)cc1
3,270 to 271,O=C(NC(Cc1ccc(OCc2ccccc2)cc1)C(=O)O)c1cn2cc(-c3ccc(Cl)cc3)ccc2n1 (configuration not stated)
4,243 to 244,O=c1[nH][nH]c(=O)c2c(O)c3ccc(I)cc3nc12
5,140 to 143,O=C1C=C(c2c(Br)cc(Br)cc2Br)C(=O)N1
6,30,CC(C)c1ccc(NCc2ccc(Br)cc2)cc1
7,57 to 58,Cc1cc(F)c(Cl)cc1[N+](=O)[O-]
8,234,O=C1NCCc2c[nH]c3cccc1c23
9,139 to 140,N#Cc1ccc(OCc2ccc3c(c2)OCO3)cc1F
10,250 to 253,O=C(Nc1ccc(C(F)(F)F)cc1)Nc1ccc(C(=O)N2CCOCC2)s1
11,116,CC(C)Nc1cccnc1N1CCN(C(=O)c2ccc(C(=O)NCCOCCO)cc2)CC1
12,209 to 211,Nc1ccc(N2CCCC2)nn1
13,179 to 181,CC#CCOc1ccc(S(=O)(=O)N(Cc2cccnc2)C2(C(=O)NO)CCCCC2)cc1
14,209 to 210,COc1cc(C(=O)N2Cc3ccccc3Cc3ccccc32)ccc1NC(=O)C1(C)C=CC=CC1 (configuration not stated)
15,> 250,CCOC(=O)c1nc2c(=O)[nH]c3cc(C(F)(F)F)ccc3n2c1C
16,284 to 286,Cc1ccsc1C(=O)c1sc(Nc2ccc(S(N)(=O)=O)cc2)nc1N
17,152 to 154,CC(C)[C@H](NC(=O)CC[C@H](C)CNC(=O)Cc1ccccc1)[C@@H](O)c1c(-c2ccccc2)c1=O
18,97 to 98,OCCOc1cn(-c2ccc(F)cc2)c2cc(Cl)ccc12
19,167,Cn1cncc1C(O)c1ccc2c(c1)c(-c1cccc(Cl)c1)cc(=O)n2C (configuration not stated)
20,127 to 128,COc1ccc(C2CCN(C(=O)C(=O)NO)CC2)cc1C=C1CCCC1
21,210 to 213,CSc1cc(C(=O)O)cc([N+](=O)[O-])c1C(=O)c1ccccc1
22,176 to 178,CSc1ccc(C(N)=O)c([N+](=O)[O-])c1
23,121 to 123,CCOCOc1cc(C)ccc1-c1cc(-c2cccc([N+](=O)[O-])c2)c(C#N)c(NC(=O)c2cccs2)n1
24,53,O=C(c1ccccc1)C(OCCN1CCCCC1)c1ccccc1 (configuration not stated)

row,melting point [°C],Compound
1,161 to 164,COc1ccc(Cl)cc1C1OC(=O)N(C(C)=O)C1=O (configuration not stated)
2,179 to 181,COC(=O)c1ccc(-n2c(C)nc3cc(C#N)ccc32)cc1
3,201 to 206,Cn1cc(C(=O)NCCCN)c(Nc2ccc(I)cc2F)cc1=O
4,276 to 278,CS(=O)(=O)c1ccc(C(=O)NCc2ccc3c(c2)C(=O)N(C2CCC(=O)NC2=O)C3=O)nc1 (configuration not stated)
5,83 to 85,Fc1cc(Cl)c(OC(F)F)cc1-n1nc2c(c1Cl)CCCC2
6,76,O=[N+]([O-])c1ccccc1CCN1CCN(c2ccccc2)CC1
7,117 to 118,Cc1cc(CCCCCOc2c(C)cc(-c3cn(C)nn3)cc2C)on1
8,139 to 140,COc1cc2c(cc1Cl)CCNCC2c1ccc(Br)cc1 (configuration not stated)
9,83 to 85,O=C(Nc1ccccc1N1CCc2ccccc21)C1CC1
10,41 to 43,COc1ccc(C2(OC)OC2(C)C)cc1 (configuration not stated)
11,88 to 90,Cc1cccc(-c2n[nH]cc2-c2ccc(F)c(-c3ccc(N4CCOCC4)cn3)c2)n1
12,253 to 254,COc1c(N2CCC(O)C2)c(F)cc2c(=O)c(C(=O)O)cn(C3CC3)c12 (configuration not stated)
13,151 to 153,Clc1ccc([C@@H]2CNc3ccccc3S2)cc1
14,240,CN=C(NC#N)N1CCc2[nH]cnc2C1
15,157 to 159,O=C(NC1CCCc2cc(C(=O)Nc3ccncc3)ccc21)OCc1ccccc1 (configuration not stated)
16,80 to 90,CC(C)(C)S(=O)c1cccc(F)c1C(=O)NCCCl (configuration not stated)
17,125 to 127,CCCc1c(O)c(C(C)=O)cc2c(C)cc(C(=O)O)nc12
18,190 to 192,CCCCc1nc(=O)c2cc(C(C)(C)O)ccc2[nH]1
19,130 to 133,CCc1nc2c(cnn2CC)c(NC2CCOCC2)c1CNC(=O)c1cccc(C(=O)NCc2cc(Cl)cc(-c3cccc(CN4CC5CC4CN5)c3)c2)c1 (configuration not stated)
20,124 to 125,CCCCCCCCCCCCS(=O)(=O)NN(C(=O)c1ccccc1)c1cc(Cl)c(C)cc1O
21,80 to 82,COC(=O)C1=Cc2ccccc2N(C)CCC1
22,183,OCCOCCNc1nc(-n2ccnc2)nc2ccc(CO)cc12
23,220 to 221,COc1cc(OC)c2c(=O)[nH]c(-c3cc(C)c(OCCN4C(=O)NC(c5ccccc5)C4=O)c(C)c3)nc2c1 (configuration not stated)

row,Compound,melting point [°C]
1,Cc1cc(C(C)(C)C)c(O)c(C)c1CSP(=S)(C1CCCCC1)C1CCCCC1,113 to 116
2,CCCC1C(O)=CC(=O)N1c1ccc(C#N)c(Cl)c1 (configuration not stated),156 to 158
3,Cc1nc(C)c(C(=O)CBr)[nH]1,128 to 132
4,CNc1ccc([N+](=O)[O-])cc1[N+](=O)[O-],177 to 178
5,COc1cc(-c2cc(=O)c3c(OC)cc(OC)c(C4=CCN(C)CC4)c3o2)cc(OC)c1OC,211 to 212
6,COc1cc2[nH]c(C)c(CCN3CCN(NC(=O)c4ccc(F)cc4)CC3)c2cc1OC,116 to 119
7,Fc1ccc2[nH]cc(C3=CCN(CC4COc5ccc6[nH]c(C(F)(F)F)nc6c5O4)CC3)c2c1 (configuration not stated),236 to 238
